# Laboratory results published in patent publication US11001573B2, “Citric acid derivative” (ADABIO CO., LTD., priority 2015, dated 2021).
# System: Wistar male rats given galactosamine hydrochloride
# Assay: Test on liver dysfunction suppression effect (galactosamine hydrochloride-induced liver disorder, plasma AST/ALT)
# Format: in vivo, rat
# Details: oral 7 days, 6 g/kg of 6 mg/mL solution, galactosamine hydrochloride 750 mg/kg i.p. on day 7, blood on day 9, vs control administration group (p<0.05, Dunnett)
# Description: (Preparation of Administration Products for Animal Test)
# (1) Preparation of Compound I Administration Product
# An 8 N sodium hydroxide aqueous solution was added dropwise to 100 mL of roughly purified solution I in small amounts, while checking the pH with a pH meter, to adjust the acid-base property of the solution to pH 6.5. Further, the mixture was diluted with a solvent.
# (2) Preparation of Compound V Administration Product
# An 8 N sodium hydroxide aqueous solution was added dropwise to 100 mL of roughly purified solution I in small amounts, while checking the pH with a pH meter, to adjust the acid-base property of the solution to pH 8.6, followed by heating at 121° C. for 30 minutes, and further the mixture was diluted with a solvent (the pH of the solution after the heating changed to about pH 6.2 due to acid formation by hydrolysis reaction).
# (Test on Liver Dysfunction Suppression Effect)
# The aforementioned administration products (1) and (2) were dissolved in a solvent composed of oligosaccharide, cyclic oligosaccharide, and D-sorbitol to give a solution, and the final concentration of compounds I and V dissolved in the solution administered was adjusted to 6 mg/mL. The solution in an amount of 6 g/kg as calculated from specific gravity of the solution was orally administered to 8 week-old Wistar male rats (CHARLES RIVER LABORATORIES JAPAN, INC.) for 7 days with free access to commercially available solid feed and tap water. The solvent free from the aforementioned compounds (1) and (2) in an amount of 6 g/kg was orally administered to the control animals for 7 days. On the 7th day after the start of administration, a 750 mg/kg dose of galactosamine hydrochloride (Wako Pure Chemical Industries, Ltd.) was intraperitoneally administered to each of the animals to which the control and compounds I and V were administered, and the abdomen was opened on the 9th day after the start of administration under pentobarbital anesthesia (50 mg/kg), to collect heparinized blood from the abdominal aorta. The obtained blood was separated into blood plasma, and the AST and ALT values thereof were measured by the JSCC standardization-corresponding method. In FIG. 14, the results are shown as average+standard deviation (the number of animals of each group was 20). Symbol * represents a significant difference (p<0.05) from the control group, which was tested by the Dunnett's test after the one-way analysis of variance.
SMILES,ALT value in blood plasma,AST value in blood plasma
O=C(O)CC(C(=O)O)N1C(=O)CC(O)(CC(=O)O)C1=O (stereo not shown) [compound I],significantly low,significantly low
O=C(O)CC(NC(=O)CC(O)(CC(=O)O)C(=O)O)C(=O)O (stereo not shown) [compound V],significantly low,significantly low
